These compounds were tested against T1, 5-hydroxytryptamine receptor 1F (Homo sapiens, UniProt P30939).
T1 sequence (P30939 whole entry): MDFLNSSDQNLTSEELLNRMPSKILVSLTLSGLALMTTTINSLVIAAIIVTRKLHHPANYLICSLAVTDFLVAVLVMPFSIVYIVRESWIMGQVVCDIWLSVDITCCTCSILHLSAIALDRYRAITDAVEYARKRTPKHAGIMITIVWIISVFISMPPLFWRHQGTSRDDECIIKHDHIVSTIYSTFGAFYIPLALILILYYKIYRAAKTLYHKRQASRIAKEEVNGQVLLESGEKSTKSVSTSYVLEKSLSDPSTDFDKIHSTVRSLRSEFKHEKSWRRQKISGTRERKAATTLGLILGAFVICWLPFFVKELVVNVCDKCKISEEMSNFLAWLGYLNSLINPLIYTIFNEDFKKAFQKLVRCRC

First: CSc1ccc2c(c1)C(N1CCN(C)CC1)Cc1ccccc1S2 (configuration not stated) [methanesulfonic acid;1-methyl-4-(3-methylsulfanyl-5,6-dihydrobenzo[b][1]benzothiepin-5-yl)piperazine]
Second: O=C(c1ccc(F)cc1)C1CCN(CCn2c(=O)[nH]c3ccccc3c2=O)CC1 [3-(2-{4-[(4-fluorophenyl)carbonyl]piperidin-1-yl}ethyl)-1,2,3,4-tetrahydroquinazoline-2,4-dione]
The Ki of the first is lower: 0.652 µM for the first, over 10 µM for the second. The first binds more tightly here.

Going from COc1cc(N)c(Cl)cc1C(=O)NC1CN2CCC1CC2 (configuration not stated) [ZACOPRIDE,R] to COc1cc(CC(C)N)c(OC)cc1I (configuration not stated) [[125I]2,5-dimethoxy-4-iodoamphetamine], the Ki falls from over 10 µM to 1.74 µM.

CCCN(CCC)C1CCc2cccc(O)c2C1 (configuration not stated) and CCCN(CCC)CCc1c[nH]c2ccc(C(N)=O)cc12 [NN-DIPROP-5-CT] are within 1.5-fold of each other in Ki: 1.77 µM for the first, 1.61 µM for the second.

First: Cn1cc(CCN)c2cc(O)ccc21 [5-HT,omega-N-Me]
Second: COc1ccc2[nH]cc(CCN)c2c1 [tryptamine, 5-Methoxy]
The Ki of the first is 6.4-fold lower: 0.184 µM for the first, 1.17 µM for the second.

O=C(CCCN1CCC2(CC1)C(=O)NCN2c1ccccc1)c1ccc(F)cc1 [8-[4-(4-fluorophenyl)-4-oxidanylidene-butyl]-1-phenyl-1,3,8-triazaspiro[4.5]decan-4-one] and CN1C[C@@H](NS(=O)(=O)N(C)C)C[C@@H]2c3cccc4c3c(cn4C)C[C@H]21 [MESULERGINE] cannot be ordered by Ki: over 10 µM for the first, over 10 µM for the second.

Compared with CC(C)NCC(O)COc1cccc2[nH]ccc12 (configuration not stated) [LB-46], COc1ccc2[nH]cc(CCN(C)C)c2c1 [3-(2-DIMETHYLAMINOETHYL)-5-METHOXYINDOLE] is lower in Ki: over 10 µM for the first, 0.037 µM for the second. The second binds more tightly here.
